Test results published in patent US20030232906A1, “Stabilized coating compositions containing isothiazolone” (priority 2002, published 2003).
Read-outs that look alike come from different tables or passages of the source.

Assay type: physicochemical
Details: for retention of 2-n-octyl-3-isothiazolone active ingredient after 14 days: 1% solution in 95% propylene glycol/5% water, pH 10.0-10.1 (NaOH), no metal salt stabilizers
Protocol: A 2-n-octyl-3-isothiazolone solution (1%) was prepared in 95% propylene glycol/5% water and the pH was adjusted to 10.0-10.1 with NaOH; no metal salt stabilizers were added to the mixture. Samples of this mixture were then stored at ambient temperature (approximately 25° C.) and also in an oven at 40° C. After 14 days, there was no loss of 2-n-octyl-3-isothiazolone active ingredient (100% retention) for samples stored at either 25° C. or 40° C.

For CCCCCCCCn1sccc1=O [2-n-octyl-3-isothiazolone, 2-n-Octyl-3-isothiazolone], the “stability at high pH in the absence of amines (in words)” value was “stable”, the “retention of 2-n-octyl-3-isothiazolone active ingredient after 14 days” value (40° C.) was 100% and the “retention of 2-n-octyl-3-isothiazolone active ingredient after 14 days” value (approx. 25° C.) was 100%.
